We go through one compound from patent US10781182B2, “Compounds, process for obtaining the compounds, pharmaceutical composition, use of the compounds and method for treating psychiatric disorders and/or sleep disorders” (ACHÉ LABORATÓRIOS FARMACÊUTICOS S.A., priority 2016, dated 2020).

For series [1] the following is noted: oral, estimated, from literature; cited from earlier work.
The target of series [2] is CYP1A2 (Homo sapiens (Human), UniProt P05177). As to the kind of experiment: CYP inhibition, fluorogenic substrate. The format is in vitro ADME. From the text:
(§1) The CYP inhibition test used fluorogenic substrates specific to each CYP to check for inhibition thereof by detection of the expected metabolite using a fluorimetric method. Recombinant CYPs (CYP2B6, CYP2C8, […], CYP2C19, CYP2D6, CYP3A4) from specific humans for each cytochrome family, subfamily and polypeptide were used. The following were used as substrates: CEC (3-Cyano-7-Ethoxycoumarin) which forms as metabolite CHC (3-Cyano-7-Hydroxycoumarin); EFC (7-Ethoxy-4-trifluoromethyl coumarin), forming the metabolite HFC (7-Hydroxytri fluoromethylcoumarin); DBF (Dibenzylfluorescein) and its respective fluorescein metabolite; MFC (7-Methoxy-4-trifluoromethylcoumarin) which forms the metabolite HFC (7-Hydroxytrifluoromethylcoumarin); BFC (7-Benzyloxy-Trifluoromethylcoumarin) and its metabolite HFC; and BzRes (benzyloxyresorufin) to form resofurine. The detection of the metabolite was done with a fluorimetric method: analytical technique to identify and characterize the amount of substance by excitation using a beam of ultraviolet light and measurement of the emitted fluorescence. For detection, a 96-well plate was used. Each sample was tested in two wells (n=2) as standard condition. At least 04 wells were separated for vehicle (control). Compounds were tested at a concentration […], standard for this assay. They were preincubated with a NADPH generator system in a phosphate buffer (pH 7.4) for 5 minutes at 37° C. The reaction was started by adding the specific CYP enzymes, substrate and bovine serum albumin (BSA<0.4 mg/ml). Incubations were performed between 20-50 minutes at 37° C. according to the specific parameter of each fluorogenic substrate, for the evaluated component. Fluorescence at each well was detected before and after the incubation period.

The target in series [3] is CYP2C9 (Homo sapiens (Human), UniProt P11712). As to the kind of experiment: CYP inhibition, fluorogenic substrate. The format is in vitro ADME. Set-up: dose or concentration left out as unconfirmed. The settings on record: recombinant CYP2C9, pH 7.4.
Chain of CYP2C9 (P11712 whole entry): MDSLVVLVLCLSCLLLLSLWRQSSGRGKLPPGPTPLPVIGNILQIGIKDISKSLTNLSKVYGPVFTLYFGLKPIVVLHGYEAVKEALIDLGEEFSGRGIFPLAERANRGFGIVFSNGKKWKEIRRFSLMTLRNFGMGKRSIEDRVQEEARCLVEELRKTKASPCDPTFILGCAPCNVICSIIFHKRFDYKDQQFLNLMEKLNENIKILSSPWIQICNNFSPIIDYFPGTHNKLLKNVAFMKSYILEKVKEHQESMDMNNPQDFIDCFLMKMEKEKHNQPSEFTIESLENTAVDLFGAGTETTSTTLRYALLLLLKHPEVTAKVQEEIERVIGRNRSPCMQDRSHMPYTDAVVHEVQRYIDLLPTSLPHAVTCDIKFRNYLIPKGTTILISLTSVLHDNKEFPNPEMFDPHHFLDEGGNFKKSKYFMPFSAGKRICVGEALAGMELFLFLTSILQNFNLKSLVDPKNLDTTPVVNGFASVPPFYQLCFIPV
Source text: as §1

The target of series [4] is CYP2C19 (Homo sapiens (Human), UniProt P33261). Kind of series: CYP inhibition, fluorogenic substrate. The format is in vitro ADME. Set-up: dose or concentration left out as unconfirmed. To be noted: recombinant CYP2C19, pH 7.4.
Chain of CYP2C19 (P33261 whole entry): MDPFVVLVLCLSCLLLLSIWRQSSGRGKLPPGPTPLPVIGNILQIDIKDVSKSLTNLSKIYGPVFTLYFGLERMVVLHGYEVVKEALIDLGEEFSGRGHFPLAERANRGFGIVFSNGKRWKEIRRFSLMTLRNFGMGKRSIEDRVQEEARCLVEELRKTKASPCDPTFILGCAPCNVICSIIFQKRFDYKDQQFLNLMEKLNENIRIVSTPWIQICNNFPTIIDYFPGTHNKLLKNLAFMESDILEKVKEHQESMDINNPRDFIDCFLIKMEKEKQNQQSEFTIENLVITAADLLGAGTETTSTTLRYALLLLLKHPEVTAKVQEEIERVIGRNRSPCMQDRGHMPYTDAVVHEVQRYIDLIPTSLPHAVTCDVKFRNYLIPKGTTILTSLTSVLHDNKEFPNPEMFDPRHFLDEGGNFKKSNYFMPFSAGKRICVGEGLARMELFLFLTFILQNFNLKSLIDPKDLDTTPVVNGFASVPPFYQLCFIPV
Source text: as §1

In series [5] the target is CYP2D6 (Homo sapiens (Human), UniProt P10635). Kind of series: CYP inhibition, fluorogenic substrate. The format is in vitro ADME. Set-up: dose or concentration left out as unconfirmed. The settings on record: recombinant CYP2D6, pH 7.4.
Chain of CYP2D6 (P10635 whole entry): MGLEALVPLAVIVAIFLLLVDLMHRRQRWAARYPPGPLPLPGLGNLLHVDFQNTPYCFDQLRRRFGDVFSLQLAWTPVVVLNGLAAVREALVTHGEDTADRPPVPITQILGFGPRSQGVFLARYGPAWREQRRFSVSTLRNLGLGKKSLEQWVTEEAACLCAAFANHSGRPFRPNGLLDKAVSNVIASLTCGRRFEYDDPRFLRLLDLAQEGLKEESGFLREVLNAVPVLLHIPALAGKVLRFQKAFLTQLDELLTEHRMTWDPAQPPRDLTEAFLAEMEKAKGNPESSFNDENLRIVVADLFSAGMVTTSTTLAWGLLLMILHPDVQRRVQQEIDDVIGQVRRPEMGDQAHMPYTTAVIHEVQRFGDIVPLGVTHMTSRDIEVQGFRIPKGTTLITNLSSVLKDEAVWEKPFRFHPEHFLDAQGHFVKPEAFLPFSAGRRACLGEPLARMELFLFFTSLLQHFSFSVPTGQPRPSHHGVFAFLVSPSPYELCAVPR
Source text: as §1

In series [6] the target is CYP2C8 (Homo sapiens (Human), UniProt P10632). Kind of series: CYP inhibition, fluorogenic substrate. The format is in vitro ADME. On the set-up: dose or concentration left out as unconfirmed. The settings on record: recombinant CYP2C8, pH 7.4.
Chain of CYP2C8 (P10632 whole entry): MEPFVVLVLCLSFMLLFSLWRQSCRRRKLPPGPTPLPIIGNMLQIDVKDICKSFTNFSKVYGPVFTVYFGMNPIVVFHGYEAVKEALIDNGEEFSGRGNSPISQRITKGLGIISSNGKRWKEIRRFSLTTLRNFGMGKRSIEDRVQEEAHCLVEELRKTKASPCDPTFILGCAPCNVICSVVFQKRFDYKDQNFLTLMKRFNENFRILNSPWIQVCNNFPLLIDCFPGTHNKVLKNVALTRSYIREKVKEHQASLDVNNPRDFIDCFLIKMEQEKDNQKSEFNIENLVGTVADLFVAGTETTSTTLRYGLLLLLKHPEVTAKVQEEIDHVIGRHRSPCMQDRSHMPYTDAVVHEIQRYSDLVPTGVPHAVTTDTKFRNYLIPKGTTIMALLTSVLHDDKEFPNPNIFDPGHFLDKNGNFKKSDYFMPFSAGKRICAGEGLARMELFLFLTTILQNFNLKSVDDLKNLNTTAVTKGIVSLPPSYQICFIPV
Source text: as §1

Series [7] addresses CYP2B6 (Homo sapiens (Human), UniProt P20813). Kind of series: CYP inhibition, fluorogenic substrate. The format is in vitro ADME. Set-up: dose or concentration left out as unconfirmed. To be noted: recombinant CYP2B6, pH 7.4.
Source text: as §1

Series [8] deals with mouse hepatocytes (CD-1 males). As to the kind of experiment: Intrinsic clearance in cryopreserved mouse hepatocytes. The format is in vitro ADME. As to the method:
(§2) Cryopreserved hepatocytes from humans, rats (Sprague-Dawley males) and from mice (CD-1 males) were used for incubation at different times (0, 0.5, 1, 1.5, 2 hours) at 37° C. followed by HPLC-MS/MS detection. The aim was to verify the clearance time of the test substance on hepatocytes. The experiment was performed on a 96-well plate and the cryopreserved hepatocytes were thawed and resuspended in Krebs-Heinslet buffer(pH 7.3). The reaction was started by adding each test compound to each cell suspension and performing the incubation at the times indicated above. The reaction was quenched with addition of acetonitrile in the wells and detection by HPLC-MS/MS (mass spectrometry). MS/MS is performed by combining two mass detectors into a single instrument.

A short description of series [9]: Pharmacokinetics (PK) in rat, I.V. and oral. The format is in vivo, Wistar-Han rats. As to the method: […] The study lasted for 2 weeks (including acclimation time and study), in which the route of administration was made by injection into the caudal vein and oral gavage. The treatment was carried out in a single dose: I.V. group with dose of 1 mg/kg and Oral group with dose of 10 mg/kg. […] Clinical observations were made twice a day (morning and afternoon) in the pre-dose at the 08 time points defined in the protocol. Blood collection was performed after euthanasia in the pre-dose animals at 08 defined time points and at 24 hours post-dose. The pharmacokinetic analysis parameters detected for Group IV were: half-life (t½), drug concentration at time zero (C0), last measurable plasma concentration (AUClast), area under the plasma concentration curve extrapolation percentage (AUC % ext), area under the plasma concentration curve extrapolation to infinity (AUCinf), volume of distribution (Vz), steady state volume of distribution (Vss), clearance (CL) and mean residence time (MRT). The parameters evaluated for the Oral group were: bioavailability (F %), maximum concentration reached (Cmax), time to reach maximum plasma concentration (Tmax), last measurable plasma concentration (AUClast), area under the plasma concentration curve extrapolation percentage (AUC % ext), area under the plasma concentration curve extrapolation to infinity (AUCinf), area under the plasma concentration curve extrapolation to infinity versus dose (AUCinf/Dose), half-Life (t½), and mean residence time (MRT).

The target in series [10] is P450 cytochrome 1A2 (CYP1A2) (Homo sapiens (Human), UniProt P05177). The settings on record: cited from earlier work.
Chain of P450 cytochrome 1A2 (CYP1A2) (P05177 whole entry): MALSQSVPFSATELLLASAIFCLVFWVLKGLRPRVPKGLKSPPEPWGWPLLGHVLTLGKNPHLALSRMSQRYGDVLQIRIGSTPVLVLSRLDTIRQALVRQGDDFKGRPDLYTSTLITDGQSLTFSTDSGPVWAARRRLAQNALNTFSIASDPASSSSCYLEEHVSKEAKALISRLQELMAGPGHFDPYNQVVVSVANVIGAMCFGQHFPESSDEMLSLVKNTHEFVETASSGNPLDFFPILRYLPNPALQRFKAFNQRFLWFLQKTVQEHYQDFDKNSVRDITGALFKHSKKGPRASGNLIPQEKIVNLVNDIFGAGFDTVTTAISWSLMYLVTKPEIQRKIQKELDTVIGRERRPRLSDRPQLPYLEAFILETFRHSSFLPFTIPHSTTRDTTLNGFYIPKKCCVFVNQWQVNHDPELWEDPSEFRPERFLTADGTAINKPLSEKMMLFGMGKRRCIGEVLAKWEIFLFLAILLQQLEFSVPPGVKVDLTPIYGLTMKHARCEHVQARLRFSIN
Series [11] concerns human hepatocytes. As to the kind of experiment: Intrinsic clearance in cryopreserved human hepatocytes. The format is in vitro ADME. As to the method: as §2
Series [12] has as its system CYP2C9 and CYP2C19. To be noted: cited from earlier work.
Series [13] has as its system rat hepatocytes (Sprague-Dawley males). As to the kind of experiment: Intrinsic clearance in cryopreserved rat hepatocytes. The format is in vitro ADME. As to the method: as §2
Setting [14] is: Wistar-Han, plasma, intravenous 1 mg/kg.

Chain of CYP1A2 (P05177 whole entry): as above
Chain of CYP2B6 (P20813 whole entry): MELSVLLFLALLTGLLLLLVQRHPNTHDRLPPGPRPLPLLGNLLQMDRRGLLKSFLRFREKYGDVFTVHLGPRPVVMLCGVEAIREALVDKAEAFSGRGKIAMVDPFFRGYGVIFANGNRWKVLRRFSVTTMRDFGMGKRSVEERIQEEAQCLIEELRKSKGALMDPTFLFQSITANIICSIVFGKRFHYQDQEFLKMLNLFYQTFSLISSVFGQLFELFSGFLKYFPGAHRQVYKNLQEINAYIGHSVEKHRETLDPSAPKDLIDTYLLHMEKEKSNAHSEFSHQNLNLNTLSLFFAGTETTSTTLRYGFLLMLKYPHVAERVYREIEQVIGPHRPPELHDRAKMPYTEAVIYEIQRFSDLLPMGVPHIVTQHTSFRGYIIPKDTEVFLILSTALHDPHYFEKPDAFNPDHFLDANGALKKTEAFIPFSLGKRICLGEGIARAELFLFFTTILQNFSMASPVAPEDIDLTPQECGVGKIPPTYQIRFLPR

For the compound `COc1ccc2cccc(CCNC(C)=O)c2c1` [IA2-76, agomelatine, reference compound], in series [1], the absolute bioavailability is recorded as 1%. The “affinity to cytochrome isoforms (in words)” value in [2] is recorded as “high affinity”. Besides, the inhibition in [3] was -19.3%; in [4], 44.4%; in series [5], 7.9%; in [6], 12.9%; in [7], 1.8%. Besides, the “Intrinsic clearance half-life, Mouse CD-1” value in series [8] was 25 min. This compound came in with a clearance in series [9] (setting [14]) of 39.1 mL/min/kg. In addition, the half-life in [9] (setting [14]) was 17.7 min. The compound further returned an AUC(0-t) in [9] (Wistar-Han, plasma, oral 10 mg/kg) of 1020 ng·h/mL. For the same compound, in series [9] (Wistar-Han, plasma, oral 10 mg/kg vs intravenous 1 mg/kg, read-out: F (%) bioavailability), the bioavailability was 22.6%. In series [9] (intravenous 1 mg/kg), this compound gave a CL of 39.1 mL/min/kg. In [9] (intravenous 1 mg/kg), this compound yielded a T1/2 of 17.7 min. Besides, in series [9] (oral 10 mg/kg), the AUClast was 1025 ng·h/mL. In addition, in [9] (oral 10 mg/kg vs intravenous 1 mg/kg), the “F (%) bioavailability” value came out at 22.6%. Further, the “share metabolized in the liver by CYP1A2” value in series [10] was “Around 90%”. In addition, the “Intrinsic clearance half-life, Human” value in series [11] came to 48 min. In addition, the “share metabolized by CYP2C9 and CYP2C19” value in [12] is given as 10%. In addition, the “Intrinsic clearance half-life, Rat Sprague-Dawley” value in series [13] is 50 min.
